Data: PubChem BioAssay (NCI)
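The compound was tested at five concentrations on cells cultured in 96-well plates, with a 48-hour exposure period. Abbreviation: GI50, concentration required for 50% inhibition of growth. TGI denotes the concentration required for complete inhibition of growth.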

Assays:
Assay in all cases: NCI tumour cell line growth inhibition, 48 h
NCI-H226 lung = system: NCI-H226 lung
SK-MEL-2 melanoma = system: SK-MEL-2 melanoma
DU-145 prostate = system: DU-145 prostate
OVCAR-4 ovarian = system: OVCAR-4 ovarian
OVCAR-5 ovarian = system: OVCAR-5 ovarian
SN12C renal = system: SN12C renal
SR leukemia = system: SR leukemia
M14 melanoma = system: M14 melanoma
HOP-62 NSCLC = system: HOP-62 NSCLC
HOP-92 NSCLC = system: HOP-92 NSCLC

Compound | GI50 (NCI-H226 lung) [µM] | TGI (NCI-H226 lung) [µM] | GI50 (SK-MEL-2 melanoma) [µM] | TGI (SK-MEL-2 melanoma) [µM] | GI50 (DU-145 prostate) [µM] | TGI (DU-145 prostate) [µM] | GI50 (OVCAR-4 ovarian) [µM] | TGI (OVCAR-4 ovarian) [µM] | GI50 (OVCAR-5 ovarian) [µM] | TGI (OVCAR-5 ovarian) [µM] | GI50 (SN12C renal) [µM] | TGI (SN12C renal) [µM] | GI50 (SR leukemia) [µM] | TGI (SR leukemia) [µM] | GI50 (M14 melanoma) [µM] | TGI (M14 melanoma) [µM] | GI50 (HOP-62 NSCLC) [µM] | TGI (HOP-62 NSCLC) [µM] | GI50 (HOP-92 NSCLC) [µM] | TGI (HOP-92 NSCLC) [µM]
N=c1c2c(-c3ccccc3)c(-c3ccccc3)n(Cc3ccccc3)c2ncn1CCCO | 0.817 | 12.9 | 1.77 | 5.64 | 3.14 | 19.1 | 1.43 | 13.4 | 7.27 | 23.4 | 1.99 | 19.6 | 0.268 | 6.4 | 2 | 6.54 | 1.03 | 7.05 |  | 
N#Cc1cccc(C(=O)Nc2cccc(NC(=O)c3cccc(C#N)c3)c2)c1 | 49.1 | > 100 | > 100 | > 100 | 66.6 | > 100 | > 100 | > 100 | > 100 | > 100 | 34.1 | > 100 |  |  | > 100 | > 100 | 33.5 | 74 | 60.4 | > 100
O=C1CC(c2ccc3c(c2)OCO3)Nc2cc3c(cc21)OCO3 (stereo not given) | 13.9 | > 100 | 0.747 | > 100 | 0.405 | 14.7 | 1.04 | > 100 | 2.3 | > 100 | 0.788 | > 100 | 0.266 | 12.4 |  |  | 0.523 | > 100 |  | 
Cc1ccc(NC(=O)c2cc3ccccc3c(N=Nc3ccccc3O)c2O)c(C)c1 |  | 13.1 |  | 14.9 |  |  |  | 11.6 |  | 19.5 |  |  |  | 3.53 |  | 12.7 |  | 12.1 |  | 12.9
O=c1c2cccc3cccc(c4oc5c6cccc7cccc(c(=O)c5c14)c76)c32 |  | > 31.6 |  | 23.3 |  |  |  |  |  | > 31.6 |  | 18.2 |  | 29.9 |  | 17.7 |  | > 100 |  | 15.2
O=C1Nc2ccccc2C1Cc1ccc([N+](=O)[O-])cc1 (stereo not given) |  | > 100 |  | > 100 |  | > 100 |  | > 100 |  | > 100 |  | > 100 |  | > 100 |  | > 100 |  | > 100 |  | 
CC1=C(C(=O)Nc2cccc(Cl)c2)C(c2ccc([N+](=O)[O-])cc2)C(C(=O)Nc2cccc(Cl)c2)=C(C)N1 |  | 84.5 |  | 32.9 |  |  |  | > 100 |  | > 100 |  | 75.8 |  |  |  | 42.1 |  | > 100 |  | 31.1
CCCCCCCCC(=O)N(C)C1C2CN3CCC(O2)C13 (stereo not given) |  | > 100 |  | > 100 |  |  |  | > 100 |  | > 100 |  | > 100 |  |  |  | > 100 |  | > 100 |  | 
O=c1c2cc(Br)ccc2nc(-c2ccccc2Cl)n1NCC1(O)OCC(O)C(O)C1O (stereo not given) |  | > 100 |  | > 100 |  |  |  | > 100 |  | > 100 |  | > 100 |  | > 100 |  | > 100 |  | > 100 |  | 
Fc1cccc2cc3ccc4cccc5ccc(c12)c3c45 |  | > 100 |  |  |  |  |  | > 100 |  | > 100 |  | > 100 |  |  |  | > 100 |  | > 100 |  | 
O=c1c(Sc2c(O)c3ccccc3c3ccccc3c2=O)c(O)c2ccccc2c2ccccc12 |  |  |  | 68.5 |  |  |  | > 100 |  | > 100 |  | > 100 |  |  |  | > 100 |  | 86.4 |  | > 100
COC(=O)C1C2C=CC(C2)C1(C(=O)OC)S(=O)CC12CCC(CC1O)C2(C)C (stereo not given) |  | > 100 |  | > 100 |  |  |  | > 100 |  | > 100 |  | > 100 |  | 63.1 |  | > 100 |  | > 100 |  | > 100
Cn1ccc2c(c1=O)C(=O)c1nccc3c1c-2nc1ccccc13 | 12.5 | 26.4 |  |  |  |  | 1.31 | 2.6 | 1.92 | 3.46 | 1.56 | 3.03 |  |  | 1.84 | 3.52 | 1.45 | 2.81 | 1.81 | 20.4
CC(=O)Nc1ccc(/C=N\N2C(=O)c3ccccc3C2=O)cc1 |  | > 100 |  | > 100 |  |  |  | > 100 |  | > 100 |  | > 100 |  | > 100 |  | > 100 |  | > 100 |  | > 100
CN(CC(=O)O)c1ccc(/C=C/c2ccnc3ccccc23)cc1 |  |  |  | 44.6 |  | > 100 |  |  |  | 94 |  | 92.8 |  | 33.7 |  | 67.7 |  | > 100 |  | > 100
CC(=O)Nc1ccccc1C=C1c2ccccc2-c2ccccc21 |  | 66.8 |  | > 100 |  | > 100 |  | > 100 |  | > 100 |  | 53.6 |  | > 100 |  | > 100 |  | 42.9 |  | 
NNC(=O)CCC(=O)Nc1cc(Cl)c(Cl)cc1Cl |  | > 100 |  | > 100 |  |  |  | > 100 |  | > 100 |  | > 100 |  | > 100 |  | > 100 |  | > 100 |  | > 100
C=C1C(=O)OC2C1CC[C@H](C)C13OC(=O)CC1[C@@]23C (stereo not given in full) |  | > 100 |  | > 100 |  |  |  |  |  | > 100 |  | > 100 |  | > 100 |  |  |  |  |  | > 100
CC(C)[C@@]12C[C@@H](OC(=O)COC(=O)/C=C/c3ccccc3)[C@@](C)(O1)[C@@H]1CC[C@@H](C)[C@H]1[C@@H]2OC(=O)/C=C/c1ccccc1 | > 100 | > 100 | > 100 | > 100 | > 100 | > 100 | > 100 | > 100 | > 100 | > 100 | 1.42 | > 100 |  |  | > 100 | > 100 | > 100 | > 100 | > 64.9 | > 100
